Reference: patent publication US10111874B2, “Combination therapies for treatment of cancer” (Araxes Pharma LLC, priority 2014, dated 2018)

What follows are molecules tested against T1, KRAS G12C 1-169, his-tagged protein, GDP-loaded (Homo sapiens, UniProt P01116, G12C) (assay: Biochemical assay: covalent binding to KRAS G12C analyzed by mass spectrometry). Details: compounds 48-246, measured at 2 h.
T1 construct: KRAS G12C 1-169, his-tagged protein, GDP-loaded
Also: test concentration or dose not given here.

T1 sequence (P01116 1-169 isoform P01116-2 G12C): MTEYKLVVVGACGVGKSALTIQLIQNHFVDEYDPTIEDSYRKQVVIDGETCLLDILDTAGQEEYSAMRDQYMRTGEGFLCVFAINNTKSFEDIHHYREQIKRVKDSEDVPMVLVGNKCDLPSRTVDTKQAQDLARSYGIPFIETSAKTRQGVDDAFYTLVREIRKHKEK

SMILES | Binding %
C=CC(=O)N1CCN(c2ncnc3cc(-c4ccccc4-c4cncs4)c(Cl)cc23)CC1 [Compound I-187, 1-(4-(6-chloro-7-(2-(thiazol-5-yl)phenyl)quinazolin-4-yl)piperazin-1-yl)prop-2-en-1-one] | +++ (+++indicates binding activity greater than 50% and up to 75%)
C=CC(=O)N1CCN(c2ncnc3cc(-c4cc(-c5cn[nH]c5)ccc4F)c(Cl)cc23)CC1 [Compound I-188, 1-(4-(6-chloro-7-(2-fluoro-5-(1H-pyrazol-4-yl)phenyl)quinazolin-4-yl)piperazin-1-yl)prop-2-en-1-one] | +++ (+++indicates binding activity greater than 50% and up to 75%)
C=CC(=O)N1CCN(C2=c3cc(Cl)c(-c4ccccc4F)cc3=NCN2C(N)=O)CC1 [Compound I-189, 4-(4-acryloylpiperazin-1-yl)-6-chloro-7-(2-fluorophenyl)quinazolin-3-carboxamide] | ++ (++indicates binding activity greater than 25% and up to 50%)
C=CC(=O)N1CCN(c2ncnc3cc(-c4cnc(N)nc4C)c(Cl)cc23)CC1 [Compound I-190, 1-(4-(7-(2-amino-4-methylpyrimidin-5-yl)-6-chloroquinazolin-4-yl)piperazin-1-yl)prop-2-en-1-one] | + (+indicates binding activity from 5% to 25%)
C=CC(=O)N1CCN(c2ncnc3cc(-c4cc(NC)ccc4C)c(Cl)cc23)CC1 [Compound I-191, 1-(4-(6-chloro-7-(2-methyl-5-(methylamino)phenyl)quinazolin-4-yl)piperazin-1-yl)prop-2-en-1-one] | +++ (+++indicates binding activity greater than 50% and up to 75%)
C=CC(=O)N1CCN(c2ncnc3cc(-c4c(F)cccc4C#N)c(Cl)cc23)CC1 [Compound I-192, 2-(4-(4-acryloylpiperazin-1-yl)-6-chloroquinazolin-7-yl)-3-fluorobenzonitrile] | ++ (++indicates binding activity greater than 25% and up to 50%)
C=CC(=O)N1CCN(c2ncnc3cc(-c4ccc(F)cc4C(N)=O)c(Cl)cc23)CC1 [Compound I-193, 2-(4-(4-acryloylpiperazin-1-yl)-6-chloroquinazolin-7-yl)-5-fluorobenzamide] | ++ (++indicates binding activity greater than 25% and up to 50%)
C=CC(=O)N1CCN(c2ncnc3cc(-c4c(F)cccc4OC)c(Cl)cc23)CC1 [Compound I-194, 1-(4-(6-chloro-7-(2-fluoro-6-methoxyphenyl)quinazolin-4-yl)piperazin-1-yl)prop-2-en-1-one] | ++++ (++++indicates binding activity greater than 75%)
C#CC1CN(c2ncnc3cc(-c4ccc(F)cc4F)c(Cl)cc23)CCN1C(=O)C=C (centres unmarked) [Compound I-195, 1-(4-(6-chloro-7-(2,4-difluorophenyl)quinazolin-4-yl)-2-ethynylpiperazin-1-yl)prop-2-en-1-one] | ++++ (++++indicates binding activity greater than 75%)
C=CC(=O)N1CCN(c2c(C#N)cnc3cc(-c4cc(O)ccc4F)c(Cl)cc23)CC1 [Compound I-196, 4-(4-acryloylpiperazin-1-yl)-6-chloro-7-(2-fluoro-5-hydroxyphenyl)quinoline-3-carbonitrile] | ++++ (++++indicates binding activity greater than 75%)
C=CC(=O)N1CCN(c2ncnc3cc(-c4cc(F)ccc4C(N)=O)c(Cl)cc23)CC1 [Compound I-197, 2-(4-(4-acryloylpiperazin-1-yl)-6-chloroquinazolin-7-yl)-4-fluorobenzamide] | ++ (++indicates binding activity greater than 25% and up to 50%)
C=CC(=O)N1CCN(c2ncnc3cc(-c4csc5ccccc45)c(Cl)cc23)CC1 [Compound I-198, 1-(4-(7-(benzo[d]thiophen-3-yl)-6-chloroquinazolin-4-yl)piperazin-1-yl)prop-2-en-1-one] | ++++ (++++indicates binding activity greater than 75%)
C=CC(=O)N1CCN(c2ncnc3cc(-c4cccc5c4OC(F)(F)O5)c(Cl)cc23)CC1 [Compound I-200, 1-(4-(6-chloro-7-(2,2-difluorobenzo[d][1,3]dioxol-4-yl)quinazolin-4-yl)piperazin-1-yl)prop-2-en-1-one] | ++ (++indicates binding activity greater than 25% and up to 50%)
C=CC(=O)N1CCN(c2ncnc3cc(-c4cccc5c4OCCO5)c(Cl)cc23)CC1 [Compound I-201, 1-(4-(6-chloro-7-(2,3-dihydrobenzo[d][1,4]dioxol-5-yl)quinazolin-4-yl)piperazin-1-yl)prop-2-en-1-one] | +++ (+++indicates binding activity greater than 50% and up to 75%)
C=CC(=O)N1CCN(c2ncnc3cc(-c4c(OC)ccc5ccccc45)c(Cl)cc23)CC1 [Compound I-202, 1-(4-(6-chloro-7-(2-methoxynaphthalen-1-yl)quinazolin-4-yl)piperazin-1-yl)prop-2-en-1-one] | +++ (+++indicates binding activity greater than 50% and up to 75%)
C=CC(=O)N1CCN(c2ncnc3cc(-c4c(O)ccc(F)c4F)c(Cl)cc23)CC1 [Compound I-203, 1-(4-(6-chloro-7-(2,3-difluoro-6-hydroxyphenyl)quinazolin-4-yl)piperazin-1-yl)prop-2-en-1-one] | ++++ (++++indicates binding activity greater than 75%)
C=CC(=O)N1CCN(c2ncnc3cc(-c4ccc(F)cc4F)c(C(F)(F)F)cc23)CC1 [Compound I-204, 1-(4-(7-(2,4-difluorophenyl)-6-(trifluoromethyl)quinazolin-4-yl)piperazin-1-yl)prop-2-en-1-one] | +++ (+++indicates binding activity greater than 50% and up to 75%)
C=CC(=O)N1CCN(c2ncnc3cc(-c4cccc5c4CCC(=O)N5)c(Cl)cc23)CC1 [Compound I-205, 5-(4-(4-acryloylpiperazin-1-yl)-6-chloroquinazolin-7-yl)-3,4-dihydroquinolin-2(1H)-one] | + (+indicates binding activity from 5% to 25%)
C=CC(=O)N1CCN(c2ncnc3cc(-c4cc(O)c(F)cc4F)c(Cl)cc23)CC1 [Compound I-206, 1-(4-(6-chloro-7-(2,4-difluoro-5-hydroxyphenyl)quinazolin-4-yl)piperazin-1-yl)prop-2-en-1-one] | ++++ (++++indicates binding activity greater than 75%)
C=CC(=O)N1CCN(c2ncnc3cc(-c4cc(O)ccc4Cl)c(C(F)(F)F)cc23)CC1 [Compound I-207, 1-(4-(7-(2-chloro-5-hydroxyphenyl)-6-(trifluoromethyl)quinazolin-4-yl)piperazin-1-yl)prop-2-en-1-one] | ++++ (++++indicates binding activity greater than 75%)
C=CC(=O)N1CCN(c2ncnc3cc(-c4c(O)cccc4F)c(C(F)(F)F)cc23)CC1 [Compound I-208, 1-(4-(7-(2-fluoro-6-hydroxyphenyl)-6-(trifluoromethyl)quinazolin-4-yl)piperazin-1-yl)prop-2-en-1-one] | ++++ (++++indicates binding activity greater than 75%)
C=CC(=O)N1CCN(c2ncnc3c(F)c(-c4ccccc4C(F)(F)F)c(Cl)cc23)CC1 [Compound I-209, 1-(4-(6-chloro-8-fluoro-7-(2-(trifluoromethyl)phenyl)quinazolin-4-yl)piperazin-1-yl)prop-2-en-1-one] | ++++ (++++indicates binding activity greater than 75%)
C=CC(=O)N1CCN(c2ncnc3c(Cl)c(-c4ccccc4F)c(Cl)cc23)CC1 [Compound I-210, 1-(4-(6,8-dichloro-7-(2-fluorophenyl)quinazolin-4-yl)piperazin-1-yl)prop-2-en-1-one] | ++++ (++++indicates binding activity greater than 75%)
